# Entries after “also recorded” stand apart in the source; their conditions may differ.
# Assays:
# [1] = system: antigen-specific (IRBP) responses of T cells; assay: In vitro antigen-driven proliferation assay (3[H]-thymidine incorporation) of drain lymph node cells from treated mice; type: cell-based, C57BL/6j mice; details: lymph node cells from treated animals, cultured 48 hours with IRBP 0.2-20 μg/ml
# Procedure: To explore the immunological effects of IB-MECA on the antigen-specific responses of T cells, an in vitro antigen-driven proliferation assay was performed. Drain lymph nodes (inguinal and iliac) were collected from the IRBP immunized mice, both from the vehicle and from the IB-MECA treated groups. The cells were cultured for 48 hours in the presence of graded doses of IRBP (0.2-20 μg/ml) and proliferation was evaluated by an ^3[H]-thymidine incorporation assay.
# [2] = system: experimental acute uveitis (EAU) induced with IRBP in C57BL/6j mice; assay: Experimental autoimmune uveitis (EAU) in mice, disease intensity scored by funduscopy; type: in vivo; details: for inhibition of fundoscopy score: oral IB-MECA 10 μg/kg twice daily from day 7
# [3] = system: experimental acute uveitis (EAU) induced with IRBP in C57BL/6j mice; assay: EAU in mice, histopathological grading of enucleated eyes; type: in vivo
# [4] = Water solubility; type: physicochemical
smiles,measurement,setting,value
"CNC(=O)[C@H]1OC(n2cnc3c(NCc4cccc(I)c4)ncnc32)[C@H](O)[C@@H]1O (stereo partly drawn) [IB-MECA, 1-Deoxy-1-[6-[[(3-iodophenyl)methyl]amino]-9H-purine-9-yl]-N-methyl-D-ribofuranuronamide]",T cell response to IRBP (proliferation),[1],moderate response; also recorded: ameliorates
same,inhibition of fundoscopy score,[2]; day 16 after immunization,91%
same,inhibition of fundoscopy score,[2]; day 20 after immunization,49.4%
same,development of EAU (FIG. 1),[2]; result in words,inhibited
same,histopathological score of EAU (FIG. 2),[3]; result in words,decreased
same,inhibition of pathological score in comparison to the vehicle-treated group,"[3]; upon study termination, oral IB-MECA 10 μg/kg twice daily from day 7",53%
same,water solubility,[4],not water soluble

# — patent US20130045943A1, “A3AR AGONISTS FOR THE TREATMENT OF UVEITIS” (THE GOVERNMENT OF THE UNITED STATES OF AMERICA AS …, priority 2010, published 2013)
